According to PubChem BioAssay (NCI):
Several values for one entry are separate records, joined by “and”; a condition that tells them apart may be missing. Identical values can stand only once.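 Values below derive from 48-hour exposures of cells grown in 96-well plates, with endpoints linearly interpolated between the two concentrations bracketing the appropriate inhibition level. Abbreviation: GI50, concentration required for 50% inhibition of growth. The concentration for full growth arrest is given as TGI.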

How the values were obtained:
Assay in all cases: NCI tumour cell line growth inhibition, 48 h
SF-539 CNS = test system: SF-539 CNS
RPMI-8226 leukemia = test system: RPMI-8226 leukemia
UO-31 renal = test system: UO-31 renal
OVCAR-8 ovarian = test system: OVCAR-8 ovarian
786-0 renal = test system: 786-0 renal
UACC-62 melanoma = test system: UACC-62 melanoma
DMS 114 small cell lung = test system: DMS 114 small cell lung
NCI-H460 lung = test system: NCI-H460 lung
HT29 colon = test system: HT29 colon
SF-295 CNS = test system: SF-295 CNS
HOP-62 NSCLC = test system: HOP-62 NSCLC
MALME-3M melanoma = test system: MALME-3M melanoma
ACHN renal = test system: ACHN renal
SW-620 colon = test system: SW-620 colon
TK-10 renal = test system: TK-10 renal
DU-145 prostate = test system: DU-145 prostate
NCI-H226 lung = test system: NCI-H226 lung
KM20L2 colon = test system: KM20L2 colon
HCT-116 colon = test system: HCT-116 colon
UACC-257 melanoma = test system: UACC-257 melanoma
SR leukemia = test system: SR leukemia
HCC-2998 colon = test system: HCC-2998 colon
HOP-92 NSCLC = test system: HOP-92 NSCLC
SK-MEL-5 melanoma = test system: SK-MEL-5 melanoma
RXF 393 renal = test system: RXF 393 renal
EKVX NSCLC = test system: EKVX NSCLC
SK-OV-3 ovarian = test system: SK-OV-3 ovarian
HOP-18 NSCLC = test system: HOP-18 NSCLC
IGROV1 ovarian = test system: IGROV1 ovarian
K-562 leukemia = test system: K-562 leukemia
SNB-78 CNS = test system: SNB-78 CNS
CAKI-1 renal = test system: CAKI-1 renal
PC-3 prostate = test system: PC-3 prostate
SNB-75 CNS = test system: SNB-75 CNS
A549 NSCLC = test system: A549 NSCLC
OVCAR-4 ovarian = test system: OVCAR-4 ovarian
U251 CNS = test system: U251 CNS
A498 renal = test system: A498 renal
SK-MEL-2 melanoma = test system: SK-MEL-2 melanoma
DLD-1 colon = test system: DLD-1 colon
NCI-H522 lung = test system: NCI-H522 lung
LXFL 529 NSCLC = test system: LXFL 529 NSCLC
OVCAR-3 ovarian = test system: OVCAR-3 ovarian
NCI-H23 lung = test system: NCI-H23 lung
MOLT-4 leukemia = test system: MOLT-4 leukemia
KM12 colon = test system: KM12 colon
OVCAR-5 ovarian = test system: OVCAR-5 ovarian
SF-268 CNS = test system: SF-268 CNS
COLO 205 colon = test system: COLO 205 colon
SN12C renal = test system: SN12C renal
HL-60(TB) leukemia = test system: HL-60(TB) leukemia
SK-MEL-28 melanoma = test system: SK-MEL-28 melanoma
CCRF-CEM leukemia = test system: CCRF-CEM leukemia
HCT-15 colon = test system: HCT-15 colon
M19-MEL melanoma = test system: M19-MEL melanoma
DMS 273 small cell lung = test system: DMS 273 small cell lung
LOX IMVI melanoma = test system: LOX IMVI melanoma
M14 melanoma = test system: M14 melanoma
SNB-19 CNS = test system: SNB-19 CNS
XF 498 CNS = test system: XF 498 CNS

CCOC(=O)CCC(NC(=O)c1ccc(N=Cc2nc3cc(C(F)(F)F)ccc3nc2-c2ccccc2)cc1)C(=O)OCC (stereo not drawn)
GI50 (SF-539 CNS): 6.03 µM | TGI (SF-539 CNS): 45.7 µM and 28.4 µM | GI50 (RPMI-8226 leukemia): > 100 µM | TGI (RPMI-8226 leukemia): > 100 µM | GI50 (UO-31 renal): > 100 µM | TGI (UO-31 renal): > 100 µM | GI50 (OVCAR-8 ovarian): > 100 µM | TGI (OVCAR-8 ovarian): 27.4 µM and > 100 µM | GI50 (786-0 renal): 30.8 µM | TGI (786-0 renal): 18.9 µM and > 100 µM | GI50 (UACC-62 melanoma): 61.6 µM | TGI (UACC-62 melanoma): 40.7 µM and > 100 µM | TGI (DMS 114 small cell lung): > 100 µM | GI50 (NCI-H460 lung): > 100 µM | TGI (NCI-H460 lung): 50 µM and > 100 µM | GI50 (HT29 colon): > 100 µM | TGI (HT29 colon): > 100 µM | GI50 (SF-295 CNS): 71.9 µM | TGI (SF-295 CNS): 31.8 µM and > 100 µM | GI50 (HOP-62 NSCLC): 16.3 µM | TGI (HOP-62 NSCLC): 50 µM and 40.6 µM | GI50 (MALME-3M melanoma): > 100 µM | TGI (MALME-3M melanoma): 22.7 µM and > 100 µM | GI50 (ACHN renal): 46.3 µM | TGI (ACHN renal): 50 µM and > 100 µM | GI50 (SW-620 colon): > 100 µM | TGI (SW-620 colon): > 100 µM | GI50 (TK-10 renal): 21.6 µM | TGI (TK-10 renal): 29.5 µM and 58.2 µM | TGI (DU-145 prostate): 50 µM | GI50 (NCI-H226 lung): > 100 µM | TGI (NCI-H226 lung): > 100 µM | GI50 (KM20L2 colon): > 100 µM | TGI (KM20L2 colon): > 100 µM | GI50 (HCT-116 colon): 44.7 µM | TGI (HCT-116 colon): 19.4 µM and > 100 µM | GI50 (UACC-257 melanoma): > 100 µM | TGI (UACC-257 melanoma): > 100 µM | GI50 (SR leukemia): > 100 µM | TGI (SR leukemia): > 100 µM | GI50 (HCC-2998 colon): > 100 µM | TGI (HCC-2998 colon): > 100 µM | GI50 (HOP-92 NSCLC): 12.5 µM | TGI (HOP-92 NSCLC): 18.3 µM and 45.8 µM | GI50 (SK-MEL-5 melanoma): > 100 µM | TGI (SK-MEL-5 melanoma): 50 µM and > 100 µM | GI50 (RXF 393 renal): 3.1 µM | TGI (RXF 393 renal): 17.2 µM and 20.2 µM | GI50 (EKVX NSCLC): > 100 µM | TGI (EKVX NSCLC): 50 µM and > 100 µM | GI50 (SK-OV-3 ovarian): 14.1 µM | TGI (SK-OV-3 ovarian): 23.2 µM and 38.2 µM | TGI (HOP-18 NSCLC): > 100 µM | GI50 (IGROV1 ovarian): > 100 µM | TGI (IGROV1 ovarian): 50 µM and > 100 µM | GI50 (K-562 leukemia): > 100 µM | TGI (K-562 leukemia): > 100 µM | GI50 (SNB-78 CNS): 18.1 µM | TGI (SNB-78 CNS): 32 µM and 98.8 µM | GI50 (CAKI-1 renal): > 100 µM | TGI (CAKI-1 renal): 50 µM and > 100 µM | TGI (PC-3 prostate): > 50 µM | GI50 (SNB-75 CNS): 3.64 µM | TGI (SNB-75 CNS): 13 µM and 14.1 µM | GI50 (A549 NSCLC): > 100 µM | TGI (A549 NSCLC): 50 µM and > 100 µM | GI50 (OVCAR-4 ovarian): > 100 µM | TGI (OVCAR-4 ovarian): 50 µM and > 100 µM | GI50 (U251 CNS): 9.75 µM | TGI (U251 CNS): 19.4 µM and 57.1 µM | TGI (A498 renal): 75 µM | GI50 (SK-MEL-2 melanoma): 37.7 µM | TGI (SK-MEL-2 melanoma): 34.7 µM and > 100 µM | GI50 (DLD-1 colon): > 100 µM | TGI (DLD-1 colon): > 100 µM | GI50 (NCI-H522 lung): 21.5 µM | TGI (NCI-H522 lung): 50 µM and > 100 µM | GI50 (LXFL 529 NSCLC): > 100 µM | TGI (LXFL 529 NSCLC): 50 µM and > 100 µM | GI50 (OVCAR-3 ovarian): > 100 µM | TGI (OVCAR-3 ovarian): 50 µM and > 100 µM | GI50 (NCI-H23 lung): 28.9 µM | TGI (NCI-H23 lung): 21.6 µM and > 100 µM | GI50 (MOLT-4 leukemia): > 100 µM | TGI (MOLT-4 leukemia): > 100 µM | GI50 (KM12 colon): > 100 µM | TGI (KM12 colon): 50 µM and > 100 µM | GI50 (OVCAR-5 ovarian): > 100 µM | TGI (OVCAR-5 ovarian): > 100 µM | GI50 (SF-268 CNS): 22.9 µM | TGI (SF-268 CNS): 31.8 µM and > 100 µM | GI50 (COLO 205 colon): > 100 µM | TGI (COLO 205 colon): 50 µM and > 100 µM | GI50 (SN12C renal): > 100 µM | TGI (SN12C renal): > 100 µM | GI50 (HL-60(TB) leukemia): 65.3 µM | TGI (HL-60(TB) leukemia): 50 µM and > 100 µM | GI50 (SK-MEL-28 melanoma): > 100 µM | TGI (SK-MEL-28 melanoma): > 100 µM | GI50 (CCRF-CEM leukemia): > 100 µM | TGI (CCRF-CEM leukemia): > 100 µM | GI50 (HCT-15 colon): > 100 µM | TGI (HCT-15 colon): > 100 µM | GI50 (M19-MEL melanoma): > 100 µM | TGI (M19-MEL melanoma): > 100 µM | TGI (DMS 273 small cell lung): > 100 µM | GI50 (LOX IMVI melanoma): > 100 µM | TGI (LOX IMVI melanoma): 50 µM and > 100 µM | GI50 (M14 melanoma): > 100 µM | TGI (M14 melanoma): 50 µM and > 100 µM | GI50 (SNB-19 CNS): 8.51 µM | TGI (SNB-19 CNS): 29.2 µM and 31.9 µM | TGI (XF 498 CNS): 11.7 µM
